Measurements published in US7399771B2, “Piperidine derivatives as CCR5 inhibitors” (Novartis AG, priority 2002, dated 2008).
Blank lines part the entries; values can stand above or below the compound they belong to.

Tests used:
Human CCR5 [1] = molecular target: T1, Human CCR5 (Homo sapiens, UniProt P51681); assay: CCR5 membrane binding assay ([I-125]MIP-1α radioligand, membranes of CHO K1 transfectants); conditions: membranes of CHO K1 cells transfected with human CCR5; ligand 125-I MIP-1α
T1 construct: expressed in transfected cells
T1 sequence (P51681 whole entry): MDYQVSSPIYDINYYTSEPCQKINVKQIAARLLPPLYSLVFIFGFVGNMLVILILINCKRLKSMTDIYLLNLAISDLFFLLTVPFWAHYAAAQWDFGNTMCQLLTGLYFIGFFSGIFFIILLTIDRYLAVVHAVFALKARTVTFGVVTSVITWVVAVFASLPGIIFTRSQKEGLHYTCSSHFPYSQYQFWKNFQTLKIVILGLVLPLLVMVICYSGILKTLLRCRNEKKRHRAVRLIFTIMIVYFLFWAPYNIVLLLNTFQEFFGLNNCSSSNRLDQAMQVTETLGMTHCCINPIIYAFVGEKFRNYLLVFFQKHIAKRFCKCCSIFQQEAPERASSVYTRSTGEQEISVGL
Procedure: a) CCR5 Membrane Binding Assay
Human CCR5 is used to generate stable transfectants in CHO K1 cells. Membranes prepared from these CCR5 transfectants are used in a radioligand binding assay using 125-I MIP-1α as a ligand and the compounds of formula I are tested for inhibitory activity.

Human CCR5 [2] = molecular target: T1, Human CCR5; assay: CCR5 functional assay - Ca2+ mobilization in CHO K1 CCR5 transfectants; format: cell-based
Procedure: b) CCR5 Functional Assay—Ca^2+ Mobilization Human CCR5 is used to generate stable transfectants in CHO K1 cells. These CCR5 transfectants are used for assessing Ca^2+ mobilization in response to stimulation by the CCR5 ligands MIP-1α, MIP-1β, HCC-1(9-74) or RANTES. For the assay the cells are loaded with a Ca^2+-sensitive fluorochrome (Fluo3 or Fluo4). Ligand concentrations between 0.01-100 nM are used to induce Ca^2+ mobilization which is monitored in a fluorometer with appropriate settings. To assess the activity of the compounds to be tested, a baseline fluorescence reading is taken after which the compounds at the desired concentration are added to the cells and fluorescence is further recorded for a certain time to assess whether compounds show agonistic effects. Next the agonist is added to the mixture and fluorescence monitored. The inhibition of Ca^2+ flux in the presence of the compounds to be tested is calculated from the inhibition of maximal fluorescence induced by the agonist. IC50 values are calculated from dose-response curves obtained with the compounds.

IC50 (Human CCR5 [1]): 0.5 nM
Compound: Cc1nc(CN(c2ccc(Cl)cc2)C2CCN(C3(C)CCN(C(=O)c4c(C)cccc4C)CC3)CC2)cs1 [Example 32]

Compound: Cc1cc[n+]([O-])c(C)c1C(=O)N1CCC(C)(N2CCC(N(Cc3ccsc3)c3ccccc3)CC2)CC1 [Example 36, (2,4-Dimethyl-1-oxy-pyridin-3-yl)-[4′-methyl-4-(phenyl-thiophen-3-ylmethyl-amino)-[1,4′]bipiperidinyl-1′-yl]-methanone]
IC50 (Human CCR5 [2]; CHO K1 CCR5 transfectants, Fluo3 or Fluo4, agonist MIP-1α, MIP-1β, HCC-1(9-74) or RANTES, read-out: IC50, inhibition of Ca2+ flux): 8 nM

Compound: Cc1cc[n+]([O-])c(C)c1C(=O)N1CCC(C)(N2CCC(N(c3ccccc3)c3ccccn3)CC2)CC1 [Example 12, (2,4-Dimethyl-1-oxy-pyridin-3-yl)-[4′-methyl-4-(phenyl-pyridin-2-yl-amino)-[1,4′]bipiperidinyl-1′-yl]methanone]
IC50 (Human CCR5 [2]): 29 nM
